According to patent US10800791B2, “Triazole ACC inhibitors and uses thereof” (Gilead Apollo, LLC, priority 2015, dated 2020):
Converted amounts (≈) assume the structure as drawn. Like-named read-outs stand apart in the source and are kept apart here.

Tests used:
human (hACC2) = human (hACC2) (Homo sapiens, UniProt O00763); experiment: In vitro ACC inhibition assay (ADP-Glo), hACC2; assay type: biochemical; settings: 5 nM ACC2, 20 μM ATP, 20 μM acetyl-CoA
Procedure: The detailed procedure is as follows. […] 10 μL ADP glo reagent was added. […] 20 μL kinase detection reagent was added.

C. albicans = experiment: Antifungal Activity Assay (broth microtiter MIC), C. albicans; assay type: cell-based, Candida albicans; settings: Candida albicans, ATCC90028, 48 h
Outline: (§1)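 MICs were scored by eye at 48 h relative to the growth control. Plates followed CLSI M27-A3, with Candida suspensions in RPMI 1640+MOPS giving a final 2.5×10^3 CFU/mL; the colonies came from Sabouraud agar grown overnight at 35 °C.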

C. parapsilosis = experiment: Antifungal Activity Assay (broth microtiter MIC), C. parapsilosis; assay type: cell-based, Candida parapsilosis; settings: Lodderomyces parapsilosis, ATCC22019, 48 h
Outline: as §1

Botrtyis cinerea (Bc) = experiment: Growth inhibition assay of fungal pathogens, Bc; assay type: cell-based; settings: 48 h
Outline: (§2)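 Spores diluted in 17% V8 liquid media and incubated with compound at final 50, 10, 2 ppm or 2, 0.4, 0.08 ppm (2% DMSO). OD600 plus visual ratings at 24 and 48 hours, blank-subtracted; percent growth inhibition from 48 h readings relative to 2% DMSO control.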

Diplodia maydis (Dm) = experiment: Growth inhibition assay of fungal pathogens, Dm; assay type: cell-based; settings: Stenocarpella maydis, 48 h
Outline: as §2

[1] = system: Fusarium moniliforme (Fm); experiment: Growth inhibition assay of fungal pathogens, Fm; assay type: cell-based; settings: for IC90: Fusarium verticillioides, 48 h, read-out: Concentration at 90% Inhibition Fm
Outline: as §2

[2] = system: Fusarium virguliforme (Fv); experiment: Growth inhibition assay of fungal pathogens, Fv; assay type: cell-based; settings: 48 h
Outline: as §2

Rhizoctonia solani (Rs) = experiment: Growth inhibition assay of fungal pathogens, Rs; assay type: cell-based; settings: 48 h
Septoria tritici (St) = experiment: Growth inhibition assay of fungal pathogens, St; assay type: cell-based; settings: Zymoseptoria tritici, 48 h
Outline: as §2

fungal (fACC2) = fungal (fACC2) (UniProt Q00955); settings: read-out: fACC2 (in vitro ACC2 Inhibition Assay, IC50), ADP-Glo, 5 nM ACC2, 20 μM ATP, 20 μM acetyl-CoA
[3] = Fusarium moniliforme, growth inhibition at 48 hours vs 2% DMSO control
[4] = Table 3a, ATCC 90028, 3 replicates, MIC recorded at 48 h, read-out: MIC, C. albicans ATCC 90028
[5] = Table 3b (additional results), ATCC 90028, 3 replicates, MIC recorded at 48 h, read-out: MIC, C. albicans ATCC 90028
[6] = Table 3a, ATCC 22019, 3 replicates, MIC recorded at 48 h, read-out: MIC, C. parapsilosis ATCC 22019
[7] = Table 3b (additional results), ATCC 22019, 3 replicates, MIC recorded at 48 h, read-out: MIC, C. parapsilosis ATCC 22019
[8] = Botrtyis cinerea, growth inhibition at 48 hours vs 2% DMSO control, read-out: Concentration at 90% Inhibition Bc
[9] = Botrtyis cinerea, growth inhibition vs 2% DMSO control at 48 hours, read-out: Concentration at 90% Inhibition Bc
[10] = Diplodia maydis, growth inhibition at 48 hours vs 2% DMSO control, read-out: Concentration at 90% Inhibition Dm
[11] = Diplodia maydis, growth inhibition vs 2% DMSO control at 48 hours, read-out: Concentration at 90% Inhibition Dm
[12] = Fusarium moniliforme, growth inhibition vs 2% DMSO control at 48 hours
[13] = growth inhibition at 48 hours vs 2% DMSO control, read-out: Concentration at 90% Inhibition Fv
[14] = growth inhibition vs 2% DMSO control at 48 hours, read-out: Concentration at 90% Inhibition Fv
[15] = mycelial plugs, growth inhibition at 48 hours vs 2% DMSO control, read-out: Concentration at 90% Inhibition Rs
[16] = mycelial plugs, growth inhibition vs 2% DMSO control at 48 hours, read-out: Concentration at 90% Inhibition Rs
[17] = Septoria tritici, growth inhibition at 48 hours vs 2% DMSO control, read-out: Concentration at 90% Inhibition St
[18] = Septoria tritici, growth inhibition vs 2% DMSO control at 48 hours, read-out: Concentration at 90% Inhibition St

Chain of fungal (fACC2) (Q00955 whole entry): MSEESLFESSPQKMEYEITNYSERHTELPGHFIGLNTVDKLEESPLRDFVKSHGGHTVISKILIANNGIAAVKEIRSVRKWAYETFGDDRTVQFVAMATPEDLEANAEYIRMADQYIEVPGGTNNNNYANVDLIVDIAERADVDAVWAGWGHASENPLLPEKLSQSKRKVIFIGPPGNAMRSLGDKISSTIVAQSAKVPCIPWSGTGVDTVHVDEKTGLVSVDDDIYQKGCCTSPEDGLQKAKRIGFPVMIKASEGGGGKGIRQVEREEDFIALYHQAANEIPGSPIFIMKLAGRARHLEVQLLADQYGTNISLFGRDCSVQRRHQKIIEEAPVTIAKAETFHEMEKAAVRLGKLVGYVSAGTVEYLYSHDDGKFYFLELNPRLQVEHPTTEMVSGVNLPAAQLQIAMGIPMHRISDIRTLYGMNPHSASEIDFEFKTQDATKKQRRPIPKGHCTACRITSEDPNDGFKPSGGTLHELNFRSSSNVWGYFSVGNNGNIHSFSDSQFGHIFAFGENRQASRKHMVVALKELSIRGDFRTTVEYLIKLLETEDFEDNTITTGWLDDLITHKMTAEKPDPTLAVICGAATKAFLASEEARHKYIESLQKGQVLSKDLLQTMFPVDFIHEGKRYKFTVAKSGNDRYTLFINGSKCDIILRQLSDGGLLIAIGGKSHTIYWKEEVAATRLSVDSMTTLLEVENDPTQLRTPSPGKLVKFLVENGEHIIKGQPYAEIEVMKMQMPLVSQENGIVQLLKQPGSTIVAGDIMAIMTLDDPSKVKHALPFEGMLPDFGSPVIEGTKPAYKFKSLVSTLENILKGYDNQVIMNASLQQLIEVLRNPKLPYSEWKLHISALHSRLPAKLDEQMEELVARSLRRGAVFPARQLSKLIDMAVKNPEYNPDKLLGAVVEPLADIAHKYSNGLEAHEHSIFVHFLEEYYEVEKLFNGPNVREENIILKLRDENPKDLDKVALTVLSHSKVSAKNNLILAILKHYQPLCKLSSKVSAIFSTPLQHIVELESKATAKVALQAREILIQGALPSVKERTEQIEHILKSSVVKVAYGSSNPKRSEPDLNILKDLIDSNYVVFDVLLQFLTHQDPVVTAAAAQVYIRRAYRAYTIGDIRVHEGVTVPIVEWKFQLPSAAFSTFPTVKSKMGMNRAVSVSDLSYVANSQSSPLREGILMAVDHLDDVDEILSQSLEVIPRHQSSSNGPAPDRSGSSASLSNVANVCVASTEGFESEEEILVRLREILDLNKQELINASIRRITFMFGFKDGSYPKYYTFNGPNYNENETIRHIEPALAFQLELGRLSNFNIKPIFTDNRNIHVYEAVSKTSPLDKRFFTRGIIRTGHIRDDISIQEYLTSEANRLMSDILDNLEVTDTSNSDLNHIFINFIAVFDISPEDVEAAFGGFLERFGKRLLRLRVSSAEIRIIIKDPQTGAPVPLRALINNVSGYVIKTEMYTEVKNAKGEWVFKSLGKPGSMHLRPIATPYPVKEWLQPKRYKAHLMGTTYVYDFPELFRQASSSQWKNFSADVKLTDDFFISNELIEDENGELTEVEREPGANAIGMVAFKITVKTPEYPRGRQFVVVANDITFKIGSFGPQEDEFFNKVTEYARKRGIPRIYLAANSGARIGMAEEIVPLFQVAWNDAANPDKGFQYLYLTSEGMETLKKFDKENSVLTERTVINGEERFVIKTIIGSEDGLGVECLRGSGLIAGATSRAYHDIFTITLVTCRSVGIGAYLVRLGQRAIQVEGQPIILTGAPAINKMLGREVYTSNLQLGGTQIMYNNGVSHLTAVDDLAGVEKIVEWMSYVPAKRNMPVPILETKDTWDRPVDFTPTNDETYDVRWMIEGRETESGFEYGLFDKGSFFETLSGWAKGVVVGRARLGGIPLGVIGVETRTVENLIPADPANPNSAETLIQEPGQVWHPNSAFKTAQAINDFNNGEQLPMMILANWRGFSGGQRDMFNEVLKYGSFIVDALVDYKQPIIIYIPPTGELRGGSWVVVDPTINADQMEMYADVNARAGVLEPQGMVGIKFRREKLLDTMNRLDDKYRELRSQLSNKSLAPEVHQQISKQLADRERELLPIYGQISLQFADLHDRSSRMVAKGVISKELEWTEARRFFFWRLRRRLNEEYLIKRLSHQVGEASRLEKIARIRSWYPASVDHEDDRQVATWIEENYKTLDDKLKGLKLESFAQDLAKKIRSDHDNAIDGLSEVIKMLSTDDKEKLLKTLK
Chain of human (hACC2) (O00763 whole entry): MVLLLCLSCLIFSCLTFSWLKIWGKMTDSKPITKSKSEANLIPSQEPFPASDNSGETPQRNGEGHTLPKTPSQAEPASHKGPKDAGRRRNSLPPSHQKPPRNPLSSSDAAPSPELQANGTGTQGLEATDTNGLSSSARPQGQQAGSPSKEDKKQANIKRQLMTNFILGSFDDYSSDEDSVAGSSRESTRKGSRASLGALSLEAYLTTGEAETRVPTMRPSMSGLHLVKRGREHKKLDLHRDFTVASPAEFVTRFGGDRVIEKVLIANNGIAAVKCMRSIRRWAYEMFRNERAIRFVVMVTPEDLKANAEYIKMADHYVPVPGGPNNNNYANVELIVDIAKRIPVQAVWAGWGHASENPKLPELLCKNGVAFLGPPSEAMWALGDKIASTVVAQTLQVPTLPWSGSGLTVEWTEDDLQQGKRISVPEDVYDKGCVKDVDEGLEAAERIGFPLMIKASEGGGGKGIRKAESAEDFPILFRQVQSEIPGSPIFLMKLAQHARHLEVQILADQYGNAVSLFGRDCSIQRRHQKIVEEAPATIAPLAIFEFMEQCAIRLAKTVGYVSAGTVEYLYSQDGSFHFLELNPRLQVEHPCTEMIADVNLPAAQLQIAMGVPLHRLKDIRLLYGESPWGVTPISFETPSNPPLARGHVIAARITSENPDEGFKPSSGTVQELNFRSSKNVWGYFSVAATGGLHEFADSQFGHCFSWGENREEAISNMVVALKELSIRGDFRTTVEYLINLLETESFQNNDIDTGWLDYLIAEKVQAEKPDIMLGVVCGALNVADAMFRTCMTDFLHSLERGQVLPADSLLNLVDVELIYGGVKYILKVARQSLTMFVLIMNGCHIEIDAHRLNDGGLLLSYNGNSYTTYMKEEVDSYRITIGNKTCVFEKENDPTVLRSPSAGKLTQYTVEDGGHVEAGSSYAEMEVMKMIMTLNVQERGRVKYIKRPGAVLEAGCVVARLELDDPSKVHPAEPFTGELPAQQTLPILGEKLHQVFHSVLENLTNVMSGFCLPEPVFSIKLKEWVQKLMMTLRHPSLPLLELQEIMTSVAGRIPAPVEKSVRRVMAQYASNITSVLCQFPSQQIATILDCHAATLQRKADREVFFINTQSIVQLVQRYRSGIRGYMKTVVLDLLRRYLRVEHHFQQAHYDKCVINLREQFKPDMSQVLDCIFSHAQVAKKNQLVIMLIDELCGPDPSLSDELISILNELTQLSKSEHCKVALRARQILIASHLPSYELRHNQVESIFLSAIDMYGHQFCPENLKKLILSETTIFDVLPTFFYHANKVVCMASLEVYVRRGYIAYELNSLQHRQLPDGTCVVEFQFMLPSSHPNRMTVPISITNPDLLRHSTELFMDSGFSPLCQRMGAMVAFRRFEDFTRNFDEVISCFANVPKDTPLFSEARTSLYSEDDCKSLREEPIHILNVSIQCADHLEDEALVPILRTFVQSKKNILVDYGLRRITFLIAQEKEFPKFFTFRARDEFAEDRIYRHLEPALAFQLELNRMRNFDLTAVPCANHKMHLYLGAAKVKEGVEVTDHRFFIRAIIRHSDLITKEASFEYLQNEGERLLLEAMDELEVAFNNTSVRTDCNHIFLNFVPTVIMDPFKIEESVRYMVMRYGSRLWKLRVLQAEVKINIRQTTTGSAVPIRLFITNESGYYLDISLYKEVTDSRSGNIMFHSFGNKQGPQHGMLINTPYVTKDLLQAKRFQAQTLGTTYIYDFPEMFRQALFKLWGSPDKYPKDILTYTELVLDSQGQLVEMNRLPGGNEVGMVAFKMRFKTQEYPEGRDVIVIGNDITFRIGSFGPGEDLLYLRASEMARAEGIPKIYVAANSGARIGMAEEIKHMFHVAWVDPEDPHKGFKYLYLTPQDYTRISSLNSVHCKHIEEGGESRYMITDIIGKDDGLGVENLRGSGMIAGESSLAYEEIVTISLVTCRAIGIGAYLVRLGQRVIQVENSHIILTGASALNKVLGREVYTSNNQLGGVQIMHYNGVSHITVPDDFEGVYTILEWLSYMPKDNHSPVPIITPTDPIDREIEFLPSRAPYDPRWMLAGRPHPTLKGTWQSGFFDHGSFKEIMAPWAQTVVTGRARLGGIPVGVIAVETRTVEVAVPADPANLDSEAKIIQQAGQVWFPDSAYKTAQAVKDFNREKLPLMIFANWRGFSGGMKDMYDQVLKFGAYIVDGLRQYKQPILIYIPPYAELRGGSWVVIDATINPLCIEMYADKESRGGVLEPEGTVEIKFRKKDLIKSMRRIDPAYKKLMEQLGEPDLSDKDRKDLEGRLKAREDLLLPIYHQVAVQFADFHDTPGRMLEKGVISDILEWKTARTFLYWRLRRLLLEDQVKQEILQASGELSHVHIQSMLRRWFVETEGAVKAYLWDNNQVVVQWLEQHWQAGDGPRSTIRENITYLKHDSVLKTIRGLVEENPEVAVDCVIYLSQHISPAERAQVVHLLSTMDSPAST

With `COc1ccc(F)cc1[C@H](Cn1c(=O)n(CC(=O)NC(C)C)c(=O)c2c(C)c(-n3nccn3)sc21)OCCO` [Compound I-82, (R)-2-(1-(2-(5-fluoro-2-methoxyphenyl)-2-(2-hydroxy-ethoxy)ethyl)-5-methyl-2,4-dioxo-6-(2H-1,2,3-triazol-2-yl)-1,4-dihydro-thieno[2,3-d]pyrimidin-3(2H)-yl)-N-isopropylacetamide] the IC50 (human (hACC2); Table 2a) was 1 to 5 nM, the IC50 (human (hACC2); Table 2b, additional results) was 1 to 5 nM and the MIC (C. albicans; read-out: MIC, C. albicans ATCC 90028, Table 3a, 3 replicates, MIC recorded at 48 h) was 2.1 to 4 µg/mL (≈ 3.75 to 7.14 µM). It also gave an MIC (C. albicans; read-out: MIC, C. albicans ATCC 90028, Table 3b (additional results), 3 replicates, MIC recorded at 48 h) of 2.01 to 4 µg/mL (≈ 3.59 to 7.14 µM), an MIC (C. parapsilosis; read-out: MIC, C. parapsilosis ATCC 22019, Table 3a, 3 replicates, MIC recorded at 48 h) of 2.1 to 4 µg/mL (≈ 3.75 to 7.14 µM) and an MIC (C. parapsilosis; read-out: MIC, C. parapsilosis ATCC 22019, Table 3b (additional results), 3 replicates, MIC recorded at 48 h) of 2.01 to 4 µg/mL (≈ 3.59 to 7.14 µM). The IC90 (Botrtyis cinerea (Bc); read-out: Concentration at 90% Inhibition Bc, Botrtyis cinerea, growth inhibition at 48 hours vs 2% DMSO control) was 2 µg/mL (≈ 3.57 µM), the IC90 (Botrtyis cinerea (Bc); read-out: Concentration at 90% Inhibition Bc, Botrtyis cinerea, growth inhibition vs 2% DMSO control at 48 hours) was 2 µg/mL (≈ 3.57 µM) and the IC90 (Diplodia maydis (Dm); read-out: Concentration at 90% Inhibition Dm, Diplodia maydis, growth inhibition at 48 hours vs 2% DMSO control) was greater than 50 µg/mL. The IC90 (Diplodia maydis (Dm); read-out: Concentration at 90% Inhibition Dm, Diplodia maydis, growth inhibition vs 2% DMSO control at 48 hours) was greater than 50 µg/mL, the “Concentration at 90% Inhibition Fm” value [1, 3] was “AA (compound concentration of 0.08 ppm at 90% inhibition of fungal pathogens)” and the IC90 [1] was 0.08 µg/mL (≈ 0.143 µM). For the same compound, the IC90 ([2]; read-out: Concentration at 90% Inhibition Fv, Fusarium virguliforme, growth inhibition at 48 hours vs 2% DMSO control) was 2 µg/mL (≈ 3.57 µM), the IC90 ([2]; read-out: Concentration at 90% Inhibition Fv, Fusarium virguliforme, growth inhibition vs 2% DMSO control at 48 hours) was 2 µg/mL (≈ 3.57 µM) and the IC90 (Rhizoctonia solani (Rs); read-out: Concentration at 90% Inhibition Rs, Rhizoctonia solani, mycelial plugs, growth inhibition at 48 hours vs 2% DMSO control) was 2 µg/mL (≈ 3.57 µM). It also gave an IC90 (Rhizoctonia solani (Rs); read-out: Concentration at 90% Inhibition Rs, Rhizoctonia solani, mycelial plugs, growth inhibition vs 2% DMSO control at 48 hours) of 2 µg/mL (≈ 3.57 µM), an IC90 (Septoria tritici (St); read-out: Concentration at 90% Inhibition St, Septoria tritici, growth inhibition at 48 hours vs 2% DMSO control) greater than 50 µg/mL and an IC90 (Septoria tritici (St); read-out: Concentration at 90% Inhibition St, Septoria tritici, growth inhibition vs 2% DMSO control at 48 hours) greater than 50 µg/mL. It also gave an IC50 (fungal (fACC2); Table 2a) of 1 to 5 nM and an IC50 (fungal (fACC2); Table 2b, additional results) of 1 to 5 nM.
Work on `COc1ccc(F)cc1[C@H](Cn1c(=O)n([C@H](C)C(=O)NC2CCC2)c(=O)c2c(C)c(-n3nccn3)sc21)OCCO` [Compound I-84, (R)—N-cyclobutyl-2-(1-((R)-2-(5-fluoro-2-methoxyphenyl)-2-(2-hydroxyethoxy)ethyl)-5-methyl-2,4-dioxo-6-(2H-1,2,3-triazol-2-yl)-1,4-dihydrothieno[2,3-d]pyrimidin-3(2H)-yl)propanamide] yielded an IC50 (human (hACC2); Table 2a) of 5 to 10 nM, an IC50 (human (hACC2); Table 2b, additional results) of 5 to 10 nM and an MIC (C. albicans; [4]) of 1.1 to 2 µg/mL (≈ 1.88 to 3.41 µM). It also gave an MIC (C. albicans; [5]) of 2.01 to 4 µg/mL (≈ 3.43 to 6.82 µM), an MIC (C. parapsilosis; [6]) of 0.25 to 1 µg/mL (≈ 0.426 to 1.7 µM) and an MIC (C. parapsilosis; [7]) of 0.25 to 1 µg/mL (≈ 0.426 to 1.7 µM). It also gave an IC90 (Botrtyis cinerea (Bc); [8]) of 0.4 µg/mL (≈ 0.682 µM), an IC90 (Botrtyis cinerea (Bc); [9]) of 0.4 µg/mL (≈ 0.682 µM) and an IC90 (Diplodia maydis (Dm); [10]) of 0.4 µg/mL (≈ 0.682 µM). The IC90 (Diplodia maydis (Dm); [11]) was 0.4 µg/mL (≈ 0.682 µM), the IC90 [1, 3] was 0.08 µg/mL (≈ 0.136 µM) and the IC90 [1, 12] was 0.08 µg/mL (≈ 0.136 µM). It also gave an IC90 [2, 13] of 0.4 µg/mL (≈ 0.682 µM), an IC90 [2, 14] of 0.4 µg/mL (≈ 0.682 µM) and an IC90 (Rhizoctonia solani (Rs); [15]) of 0.08 µg/mL (≈ 0.136 µM). The IC90 (Rhizoctonia solani (Rs); [16]) was 0.08 µg/mL (≈ 0.136 µM), the IC90 (Septoria tritici (St); [17]) was 2 µg/mL (≈ 3.41 µM) and the IC90 (Septoria tritici (St); [18]) was 10 µg/mL (≈ 17 µM). It also gave an IC50 (fungal (fACC2); Table 2a) of 0.4 to 1 nM and an IC50 (fungal (fACC2); Table 2b, additional results) of 0.3 to 1 nM.
For `COc1ccc(F)cc1[C@H](Cn1c(=O)n([C@H](C)C(=O)N(C)C(C)C)c(=O)c2c(C)c(-n3nccn3)sc21)OCCO` [Compound I-85, (R)-2-(1-((R)-2-(5-fluoro-2-methoxyphenyl)-2-(2-hydroxy-ethoxy)ethyl)-5-methyl-2,4-dioxo-6-(2H-1,2,3-triazol-2-yl)-1,4-dihydro-thieno[2,3-d]pyrimidin-3(2H)-yl)-N-isopropyl-N-methylpropanamide], the IC50 (human (hACC2); Table 2a) was 10 to 40 nM, the IC50 (human (hACC2); Table 2b, additional results) was 10 to 40 nM and the MIC (C. albicans; [4]) was 0.25 to 1 µg/mL (≈ 0.425 to 1.7 µM). It also gave an MIC (C. albicans; [5]) of 1.01 to 2 µg/mL (≈ 1.72 to 3.4 µM), an MIC (C. parapsilosis; [6]) of 0.25 to 1 µg/mL (≈ 0.425 to 1.7 µM) and an MIC (C. parapsilosis; [7]) of 2.01 to 4 µg/mL (≈ 3.41 to 6.8 µM). For the same compound, the IC90 (Botrtyis cinerea (Bc); [8]) was 2 µg/mL (≈ 3.4 µM), the IC90 (Botrtyis cinerea (Bc); [9]) was 2 µg/mL (≈ 3.4 µM) and the IC90 (Diplodia maydis (Dm); [10]) was 0.08 µg/mL (≈ 0.136 µM). The IC90 (Diplodia maydis (Dm); [11]) was 0.08 µg/mL (≈ 0.136 µM), the IC90 [1, 3] was 0.08 µg/mL (≈ 0.136 µM) and the IC90 [1, 12] was 0.08 µg/mL (≈ 0.136 µM). It also gave an IC90 [2, 13] of 0.4 µg/mL (≈ 0.68 µM), an IC90 [2, 14] of 0.4 µg/mL (≈ 0.68 µM) and an IC90 (Rhizoctonia solani (Rs); [15]) of 0.08 µg/mL (≈ 0.136 µM). It also gave an IC90 (Rhizoctonia solani (Rs); [16]) of 0.08 µg/mL (≈ 0.136 µM), an IC90 (Septoria tritici (St); [17]) of 2 µg/mL (≈ 3.4 µM) and an IC90 (Septoria tritici (St); [18]) of 10 µg/mL (≈ 17 µM). The IC50 (fungal (fACC2); Table 2a) was 0.4 to 1 nM and the IC50 (fungal (fACC2); Table 2b, additional results) was 0.3 to 1 nM.
